Columns and labels:
Format in all cases: in vivo, Alfalfa (Medicago sativa L.)
alfalfa plants [1] = experiment: Example 3 nitrogen content of alfalfa leaves; settings: 12 days after application; Groups 4-6 Rhizobium inoculated; p<0.001
Description: (§1) Alfalfa (Medicago sativa L.) seeds were sown in 3.5-inch pots containing culture medium (peat soil:vermiculite=1:1). Five (5) seeds were sown in one pot. Alfalfa plants were randomly divided into 6 groups, in which Groups 1 to 3 were not inoculated with Rhizobium, and Groups 4 to 6 were inoculated with Rhizobium. Rhizobium inoculation was the same as described in Example 2. After inoculation, the pots were placed in a phytotron, which was operated at 25/23° C. day/night temperature and on a 16/8 h light/dark cycle. Two (2) weeks after sowing (V2 stage), alfalfa plants were applied with the reagents listed in Table 6 once at a rate of 10 mL/12 pots using a foliar spray treatment. The reagents were applied once in total during the test period. [table] Twelve (12) days after the application of reagents, 4 alfalfa plants from each group (N=4) were randomly selected. The first to fifth trifoliate leaves of the selected plants were collected, air-dried at 50° C. overnight and then ground into powder. […] Average and standard error (SE) of each group were calculated.

alfalfa plants [2] = experiment: Example 3 efficacy test on alfalfa with or without Rhizobium inoculation: shoot weight, leaf area, root dry weight; settings: Day 12 after foliar spray
Description: Five (5) seeds were sown in one pot. Alfalfa plants were randomly divided into 6 groups, in which Groups 1 to 3 were not inoculated with Rhizobium, and Groups 4 to 6 were inoculated with Rhizobium. Rhizobium inoculation was the same as described in Example 2. After inoculation, the pots were placed in a phytotron, which was operated at 25/23° C. day/night temperature and on a 16/8 h light/dark cycle. Two (2) weeks after sowing (V2 stage), alfalfa plants were applied with the reagents listed in Table 6 once at a rate of 10 mL/12 pots using a foliar spray treatment. The reagents were applied once in total during the test period. [table] Twelve (12) days after the application of reagents, 12 alfalfa plants from each group (N=12) were randomly selected for phenotype observation, and the shoot fresh weight of the collected samples was measured. Then, the collected samples were dried at 50° C. overnight, and the shoot dry weight was measured. Twelve (12) days after the application of reagents, 6 alfalfa plants from each group (N=6) were randomly selected. All the trifoliate leaves of the selected plants were collected and numbered in sequence from bottom to top. The leaf area of all the trifoliate leaves of each alfalfa plant was measured by a leaf analyzer ([…]2400, Regent Instruments Inc.). Twelve (12) days after the application of reagents, 4 alfalfa plants from each group (N=4) were randomly selected. The collected samples were dried at 50° C. overnight, and then the root dry weight was measured. Average and standard error (SE) of each group were calculated.

[3] = tested on: glutamate synthase (GOGAT); experiment: Example 3 activity of glutamate synthase (GOGAT) of alfalfa leaves; settings: 12 days after application; Groups 2-3 without, Groups 4-6 with Rhizobium
Description: as §1, with “third” for “first to fifth”, “collected to determine GOGAT activity by the following method. […] The GOGAT activity is determined by NADH reduction through measuring fluorescence intensity” for “collected, air-dried”, “excitation/emission wavelengths of 340/445 nm.” for “50° C. overnight and then ground into powder.”

[4] = Groups 2-3 without, Groups 4-6 with Rhizobium
[5] = Groups 4-6 Rhizobium inoculated
[6] = Groups 4-6 Rhizobium inoculated, Group 1 no Rhizobium, no actives

Question: What does the source list for `NCCCC(=O)O` [Group 4, γ-aminobutyric acid (GABA)]?
Answer: increase of nitrogen content in the leaves compared with Group 1 (alfalfa plants [1]): 115.8%; Leaf Area, Sum of trifoliate leaves (alfalfa plants [2]; [4]): 6.27 cm^2/plant; Leaf Area, trifoliate leaf number 1 (alfalfa plants [2]; [4]): 0.90 cm^2/plant; Leaf Area, trifoliate leaf number 2 (alfalfa plants [2]; [4]): 1.03 cm^2/plant; Leaf Area, trifoliate leaf number 3 (alfalfa plants [2]; [4]): 1.01 cm^2/plant; Leaf Area, trifoliate leaf number 4 (alfalfa plants [2]; [4]): 0.85 cm^2/plant; Leaf Area, trifoliate leaf number 5 (alfalfa plants [2]; [4]): 0.87 cm^2/plant; Leaf Area, trifoliate leaf number 6 (alfalfa plants [2]; [4]): 0.93 cm^2/plant; Leaf Area, trifoliate leaf number 7 (alfalfa plants [2]; [4]): 0.52 cm^2/plant; Leaf Area, trifoliate leaf number 8 (alfalfa plants [2]; [4]): 0.17 cm^2/plant; Leaf Area, trifoliate leaf number 9 (alfalfa plants [2]; [4]): 0.00 cm^2/plant; increase of leaf area compared with Group 1 (alfalfa plants [2]; [4]): 64%; root dry weights compared with Group 1 (alfalfa plants [2]; [4]): higher; increase of trifoliate leaves compared with Group 1 (alfalfa plants [2]; [5]): 2 trifoliate leaves; plant height compared with Group 1 (words, FIG. 12) (alfalfa plants [2]; [5]): higher; increase of shoot dry weight compared with Group 1 (alfalfa plants [2]; [6]): 52.9%; increase of shoot fresh weight compared with Group 1 (alfalfa plants [2]; [6]): 66.5%; increase of GOGAT activity in the leaves compared with Group 1 [3]: 13.5%

From patent US12575568B2, “Composition for promoting the growth of legumes” (CH BIOTECH R&D CO., LTD., priority 2022, dated 2026)
